Data reported in patent publication US6387938B1, “Benzimidazole derivatives” (Mochida Pharmaceutical Co., Ltd., priority 1996, dated 2002).

Experiments:
BALB/c male mice = test: Toxicity test in mice, repeated oral dosing; assay type: in vivo
[1] = tested on: intraperitoneal eosinophilia; test: Action on intraperitoneal eosinophilia model mice; assay type: in vivo, BALB/c male mice; conditions: BALB/c mice sensitized with swine roundworm extract; oral once a day, 10 times; dose 10 mg/kg/day
Procedure: Using five animals per group of BALB/c male mice (about 25 g in body weight), 0.11 mL of physiological saline containing 0.1 mg of swine roundworm extract was administered into the peritoneal cavity of each mouse to sensitize. The same treatment was repeated 7 days after the administration and, 3 days thereafter, each animal was sacrificed by phlebotomy, 3 mL of physiological saline containing 1% dipotassium ethylenediaminetetraacetate (EDTA) was administered by intraperitoneal injection and its abdominal region was massaged for about 30 seconds. […] A portion of the cell suspension was daubed on a slide glass using a spinner to carry out Diff-Quik staining, and then total leukocytes and eosinophils were counted to calculate the ratio of eosinophils in the total leukocytes. The number of total leukocytes in the cell suspension was measured using an automatic blood cell counter. The number of eosinophils in the cell suspension was calculated by multiplying the ratio of eosinophils in the total leukocytes by the number of total leukocytes. […] The dose of each compound to be tested and the intraperitoneal eosinophilia inhibition rate calculated by the following formula are shown in Table 1. […]

[2] = tested on: IFN-γ production of the spleen cell; test: Action of IFN-γ production enhancement in tumor-bearing mouse; assay type: in vivo; conditions: B16F10 tumor-bearing C57BL/6 mouse, oral day 7 to day 21, spleen cells cultivated 24 hours with no stimulation, EIA, N = 7
Procedure: B16F10 cells cultivated in DMEM (Dulbecco's medium) supplemented with 10% FCS (fetal calf serum) were treated with trypsin, washed with PBS (phosphate buffered saline, pH 7.4), and adjusted in PBS to 1×10^7 cells/ml. The cells were subcutaneously injected in the abdomen of male C57BL/6 mouse (7 week old; body weight, about 23 g) at a dose of 0.1 ml/mouse. The day of tumor inoculation was designated day 0, and the tumor diameter was measured at day 7 with a vernier caliper. The tumor volume was calculated in terms of (minor diameter)^2×(major diameter), and the mice were grouped by using this value and the body weight for the indexes. […] The test compound was orally administered from day 7 to day 21. The solvent used was 0.5% HPMC (Hydroxy propyl methyl cellurose), and the control group was administered only with the solvent. At day 22, the mice were decapitated and the spleens were removed. After weighing the organs, the spleen was homogenized with a glass homogenizer, adjusted to 5×10^6 cells/ml, and cultivated in S-Clone SF-B medium (Sanko Pure Chemicals). The culture supernatant was collected after 24 hours, and […] at −80° C. The supernatant was measured for its IFN-γ concentration (pg/mL) by EIA (Enzyme Immunoassay). The measurement was conducted with an assay kit of ENDOGEN.

SD female rats = test: Toxicity test in rats, 14 days oral dosing; assay type: in vivo; conditions: 0.5% HPMC suspension, 300 mg/kg/day for 14 days
Procedure: SD female rats were orally treated with the compounds of Inventive Examples 54 and 55 suspended in 0.5% aqueous solution of HPMC at a dose of 300 mg/kg/day for 14 days.

[3] = Hydrolysis of the ester bond in the rat; assay type: in vivo
[4] = 5% acacia suspension, 100 mg/kg/day for 7 days, observed for 3 days after administration
[5] = 0.5% HPMC suspension, 100 mg/kg/day for 4 days

Structure (SMILES)	Abnormality in body weight and general symptoms (BALB/c male mice; [4])	Mortality (BALB/c male mice; [4])	Abnormality in body weight and general symptoms (BALB/c male mice; [5])	Mortality (BALB/c male mice; [5])	further results
O=C(O)CC(O)c1cccc2nc(CCc3ccccc3)[nH]c12 (stereo not drawn)					melting point: 103 to 105.3 °C
O=C(O)CC(=O)c1cccc2nc(CCc3ccccc3)[nH]c12 [compound 1]	no abnormality	no mortal case			
COC(=O)CC(=O)c1cccc2nc(CCc3ccccc3)[nH]c12 [compound 2]	no abnormality	no mortal case			
CCOC(=O)CC(=O)c1cccc2nc(CCc3ccccc3)[nH]c12 [compound 3]					Intraperitoneal eosinophilia inhibition rate (%) [1]: 67%
COC(=O)CC(O)c1cccc2nc(CCc3ccccc3)[nH]c12 (stereo not drawn) [compound 5]	no abnormality	no mortal case			
CCOC(=O)CC(O)c1cccc2nc(CCc3ccccc3)[nH]c12 (stereo not drawn) [compound 6]			no abnormality	No mortal case	IFN-γ concentration ([2]; dose 10 mg/kg/day): 125 pg/mL; IFN-γ concentration ([2]; dose 30 mg/kg/day): 194 pg/mL; IFN-γ concentration ([2]; dose 100 mg/kg/day): 263 pg/mL
O=C(O)CC(O)c1cccc2nc(CCc3ccccc3)[nH]c12 (stereo not drawn) [compound 7]	no abnormality	no mortal case	no abnormality	No mortal case	
CCOC(=O)CC(=O)c1cccc2c1nc(CCc1ccccc1)n2C [compound 10]	no abnormality	no mortal case			
CCOC(=O)CC(O)c1cccc2nc(CCc3ccccc3)[nH]c12 (stereo not drawn) [compound 54]			no abnormality	No mortal case	Relative liver weight (SD female rats): significant increase; Ester bond hydrolysis to generate carboxyl group [3]: hydrolyzed
CCOC(=O)CC(O)c1cccc2nc(CCc3ccccc3)[nH]c12 (stereo not drawn) [compound 55]			no abnormality	No mortal case	Relative liver weight (SD female rats): no such increase; Ester bond hydrolysis to generate carboxyl group [3]: hydrolyzed
